In PubChem BioAssay AID248 (DTP/NCI, 2004):
Inconclusive results and toxic doses are left out.

Test system: L1210 leukemia ip in BDF1 mice, survival T/C
Assay: NCI In Vivo Anticancer Drug Screen. Data for tumor model L1210 Leukemia (intraperitoneal) in B6D2F1 (BDF1) mice
Details: endpoint: mean survival time, higher = longer survival
In short: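 Ratio derived from survival: compound-dosed mice over vehicle-dosed mice, all bearing a transplantable tumor.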

[1] = dose: 100.0 mg/kg/injection, schedule: Q01DX001 (ip), vehicle: Klucel (hydroxypropylcellulose) (HPC)
[2] = dose: 200.0 mg/kg/injection, schedule: Q01DX001 (ip), vehicle: Klucel (hydroxypropylcellulose) (HPC)
[3] = dose: 400.0 mg/kg/injection, schedule: Q01DX001 (ip), vehicle: Klucel (hydroxypropylcellulose) (HPC)
[4] = dose: 100.0 mg/kg/injection, schedule: Q01DX001 (ip), vehicle: saline
[5] = dose: 200.0 mg/kg/injection, schedule: Q01DX001 (ip), vehicle: saline
[6] = dose: 400.0 mg/kg/injection, schedule: Q01DX001 (ip), vehicle: saline
[7] = dose: 100.0 mg/kg/injection, schedule: Q01DX009 (ip), vehicle: Klucel (hydroxypropylcellulose) (HPC)
[8] = dose: 100.0 mg/kg/injection, schedule: Q04DX003 (ip), vehicle: Klucel (hydroxypropylcellulose) (HPC)
[9] = dose: 200.0 mg/kg/injection, schedule: Q01DX009 (ip), vehicle: Klucel (hydroxypropylcellulose) (HPC)
[10] = dose: 200.0 mg/kg/injection, schedule: Q04DX003 (ip), vehicle: Klucel (hydroxypropylcellulose) (HPC)
[11] = dose: 400.0 mg/kg/injection, schedule: Q01DX009 (ip), vehicle: Klucel (hydroxypropylcellulose) (HPC)
[12] = dose: 400.0 mg/kg/injection, schedule: Q04DX003 (ip), vehicle: Klucel (hydroxypropylcellulose) (HPC)
[13] = dose: 100.0 mg/kg/injection, schedule: Q01DX001 (ip), vehicle: carboxymethylcellulose (CMC)
[14] = dose: 200.0 mg/kg/injection, schedule: Q01DX001 (ip), vehicle: carboxymethylcellulose (CMC)
[15] = dose: 400.0 mg/kg/injection, schedule: Q01DX001 (ip), vehicle: carboxymethylcellulose (CMC)
[16] = dose: 100.0 mg/kg/injection, schedule: Q04DX003 (ip), vehicle: saline with Tween-80
[17] = dose: 200.0 mg/kg/injection, schedule: Q04DX003 (ip), vehicle: saline with Tween-80

O=C(NCCc1ccc([N+](=O)[O-])cc1)c1ccc(S(=O)(=O)F)cc1
T/C [1]: 103 % of control | T/C [2]: 94 % of control | T/C [3]: 103 % of control

CC(C)(CN)CCBr
T/C (dose: 50.0 mg/kg/injection, schedule: Q01DX001 (ip), vehicle: saline): 95 % of control | T/C [4]: 88 % of control | T/C [5]: 101 % of control | T/C [6]: 92 % of control

Cc1ccc(NC(=O)Nc2ccc(Cl)c(Cl)c2)cc1Cl
T/C [7]: 97 % of control | T/C [8]: 93 % of control | T/C [9]: 87 % of control | T/C [10]: 96 % of control | T/C [11]: 92 % of control | T/C [12]: 91 % of control

Cc1cc(N(CCCl)CCCl)ccc1C=Nc1ccc(-c2csc(COc3ccccc3)n2)c(Cl)c1
T/C [13]: 95 % of control | T/C [14]: 108 % of control | T/C [15]: 103 % of control

O=C(O)c1cc2ccccc2cc1Sc1ccccc1
T/C [16]: 103 % of control | T/C [17]: 102 % of control

N#CCC1=CC(=O)C(=O)c2ccccc21
T/C [4]: 102 % of control | T/C [5]: 102 % of control | T/C [6]: 100 % of control

Oc1ccc[n+](CCCl)c1
T/C (dose: 6.25 mg/kg/injection, schedule: Q01DX015 (ip), vehicle: saline): 96 % of control | T/C (dose: 12.5 mg/kg/injection, schedule: Q01DX015 (ip), vehicle: saline): 100 % of control | T/C (dose: 25.0 mg/kg/injection, schedule: Q01DX015 (ip), vehicle: saline): 104 % of control | T/C (dose: 50.0 mg/kg/injection, schedule: Q01DX015 (ip), vehicle: saline): 100 % of control | T/C (dose: 100.0 mg/kg/injection, schedule: Q01DX015 (ip), vehicle: saline): 100 % of control | T/C (dose: 200.0 mg/kg/injection, schedule: Q01DX015 (ip), vehicle: saline): 96 % of control | T/C (dose: 300.0 mg/kg/injection, schedule: Q01DX015 (ip), vehicle: saline): 100 % of control

COc1cc([N+](=O)[O-])c(C)cc1Br
T/C [4]: 105 % of control | T/C (dose: 100.0 mg/kg/injection, schedule: Q04DX003 (ip), vehicle: acetone): 98 % of control | T/C [5]: 107 % of control | T/C (dose: 200.0 mg/kg/injection, schedule: Q04DX003 (ip), vehicle: acetone): 100 % of control | T/C [6]: 107 % of control | T/C (dose: 400.0 mg/kg/injection, schedule: Q04DX003 (ip), vehicle: acetone): 95 % of control

CC1([N+](=O)[O-])COP(=O)(NCC2CCCO2)OC1 (configuration not stated)
T/C (dose: 50.0 mg/kg/injection, schedule: Q01DX001 (ip), vehicle: carboxymethylcellulose (CMC)): 98 % of control | T/C [13]: 104 % of control | T/C [14]: 104 % of control | T/C [15]: 93 % of control

c1ccc(Nc2nc(Nc3ccccc3)nc(Nc3ccccc3)n2)cc1
T/C (dose: 25.0 mg/kg/injection, schedule: Q04DX002 (ip), vehicle: Klucel (hydroxypropylcellulose) (HPC)): 92 % of control | T/C (dose: 50.0 mg/kg/injection, schedule: Q04DX002 (ip), vehicle: Klucel (hydroxypropylcellulose) (HPC)): 92 % of control | T/C (dose: 100.0 mg/kg/injection, schedule: Q04DX002 (ip), vehicle: Klucel (hydroxypropylcellulose) (HPC)): 88 % of control

CCOC(=O)N(Cl)Cl
T/C (dose: 3.13 mg/kg/injection, schedule: Q04DX003 (ip), vehicle: saline): 105 % of control | T/C (dose: 6.25 mg/kg/injection, schedule: Q04DX003 (ip), vehicle: saline): 98 % of control | T/C (dose: 12.5 mg/kg/injection, schedule: Q04DX003 (ip), vehicle: saline): 98 % of control

CCC/C(=N\Nc1ccc([N+](=O)[O-])cc1[N+](=O)[O-])c1cccc([N+](=O)[O-])c1
T/C [8]: 93 % of control | T/C [10]: 92 % of control | T/C [12]: 97 % of control

CCOC(OCC)C(=O)OCC(=O)[C@]1(O)Cc2c(O)c3c(c(O)c2[C@@H](OC2CC(N)C(O)C(C)O2)C1)C(=O)c1c(OC)cccc1C3=O (some centres not stated)
T/C (dose: 0.25 mg/kg/injection, schedule: Q01DX009 (ip), vehicle: saline): 118 % of control | T/C (dose: 2.0 mg/kg/injection, schedule: Q01DX009 (ip), vehicle: saline): 182 % of control | T/C (dose: 4.0 mg/kg/injection, schedule: Q01DX009 (ip), vehicle: saline): 90 % of control

COc1ccc([N+](=O)[O-])cc1/C=C/C=O
T/C [4]: 100 % of control | T/C [5]: 92 % of control | T/C [6]: 100 % of control

O=C(O)c1ccccc1OCc1cc(=O)[nH]c(=O)[nH]1
T/C (dose: 100.0 mg/kg/injection, schedule: Q04DX003 (ip), vehicle: saline): 95 % of control | T/C (dose: 200.0 mg/kg/injection, schedule: Q04DX003 (ip), vehicle: saline): 95 % of control | T/C (dose: 400.0 mg/kg/injection, schedule: Q04DX003 (ip), vehicle: saline): 98 % of control

CCOC(=O)c1cnc(SC)nc1Nc1cccc(Cl)c1
T/C [7]: 97 % of control | T/C [8]: 90 % of control | T/C [10]: 92 % of control | T/C [11]: 90 % of control | T/C [12]: 88 % of control

Oc1ccc(CN2CCCCC2)c2cccnc12
T/C (dose: 75.0 mg/kg/injection, schedule: Q01DX001 (ip), vehicle: carboxymethylcellulose (CMC)): 106 % of control | T/C (dose: 150.0 mg/kg/injection, schedule: Q01DX001 (ip), vehicle: carboxymethylcellulose (CMC)): 106 % of control

COC(=O)NS(=O)(=O)OC
T/C (dose: 100.0 mg/kg/injection, schedule: Q04DX002 (ip), vehicle: saline): 103 % of control | T/C (dose: 200.0 mg/kg/injection, schedule: Q04DX002 (ip), vehicle: saline): 110 % of control

CC1CCN1Cc1ccccc1 (configuration not stated)
T/C (dose: 12.5 mg/kg/injection, schedule: Q04DX003 (ip), vehicle: acetone): 98 % of control | T/C (dose: 25.0 mg/kg/injection, schedule: Q04DX003 (ip), vehicle: acetone): 104 % of control | T/C (dose: 50.0 mg/kg/injection, schedule: Q04DX003 (ip), vehicle: acetone): 104 % of control | T/C (dose: 75.0 mg/kg/injection, schedule: Q01DX009 (ip), vehicle: saline): 94 % of control

CN(C)CCCNC(=O)Nc1ccccc1
T/C [7]: 100 % of control | T/C [8]: 120 % of control | T/C [9]: 98 % of control | T/C [10]: 93 % of control

N#Cc1c2ccccc2c(=N)n2ccccc12
T/C [1]: 95 % of control | T/C [8]: 98 % of control | T/C [2]: 105 % of control | T/C [10]: 104 % of control | T/C [3]: 95 % of control | T/C [12]: 114 % of control

O=P(CCCCCCCCCCP(=O)(c1ccccc1)c1ccccc1)(c1ccccc1)c1ccccc1
T/C [4]: 91 % of control | T/C [5]: 92 % of control | T/C [6]: 92 % of control

Cc1ccc(NC(=O)c2ccc(Cl)cc2Cl)cc1C
T/C [1]: 90 % of control | T/C (dose: 100.0 mg/kg/injection, schedule: Q01DX009 (ip), vehicle: saline with Tween-80): 106 % of control | T/C [8]: 108 % of control | T/C [2]: 90 % of control | T/C (dose: 200.0 mg/kg/injection, schedule: Q01DX009 (ip), vehicle: saline with Tween-80): 97 % of control | T/C [10]: 93 % of control | T/C [3]: 92 % of control | T/C (dose: 400.0 mg/kg/injection, schedule: Q01DX009 (ip), vehicle: saline with Tween-80): 100 % of control | T/C [12]: 94 % of control

O=C(NCCN1CCOCC1)c1ccc(C(=O)NCCN2CCOCC2)cc1
T/C [4]: 103 % of control | T/C [5]: 105 % of control | T/C [6]: 100 % of control

COc1cc([N+](=O)[O-])c2c(ccc[n+]2C)c1OC
T/C [16]: 98 % of control | T/C [17]: 89 % of control

Nc1cc(N)c2cccnc2c1O
T/C (dose: 2.0 mg/kg/injection, schedule: Q01DX015 (ip), vehicle: saline): 101 % of control | T/C (dose: 4.0 mg/kg/injection, schedule: Q01DX015 (ip), vehicle: saline): 101 % of control

CCCCCCOc1ccc(C=Nc2ccc(C)cc2)cc1
T/C [8]: 97 % of control | T/C [10]: 103 % of control | T/C [12]: 101 % of control

CCCN=C(N)c1ccc(N=C(N)c2ccc(N=C(N)c3ccc(C(N)=NCCC)cc3)cc2)cc1
T/C (dose: 15.0 mg/kg/injection, schedule: Q01DX Z (ip), vehicle: carboxymethylcellulose (CMC)): 154 % of control | T/C (dose: 30.0 mg/kg/injection, schedule: Q01DX Z (ip), vehicle: carboxymethylcellulose (CMC)): 88 % of control | T/C (dose: 50.0 mg/kg/injection, schedule: Q01DX Z (oral), vehicle: carboxymethylcellulose (CMC)): 110 % of control | T/C (dose: 100.0 mg/kg/injection, schedule: Q01DX Z (oral), vehicle: carboxymethylcellulose (CMC)): 109 % of control | T/C (dose: 200.0 mg/kg/injection, schedule: Q01DX Z (oral), vehicle: carboxymethylcellulose (CMC)): 106 % of control | T/C (dose: 400.0 mg/kg/injection, schedule: Q01DX Z (oral), vehicle: carboxymethylcellulose (CMC)): 109 % of control
